Data: article PMC8414367, “(E)-7-Ethylidene-lithocholic Acid (7-ELCA) Is a Potent Dual Farnesoid X Receptor (FXR) Antagonist and GPBAR1 Agonist Inhibiting FXR-Induced Gene Expression in Hepatocytes and Stimulating Glucagon-like Peptide-1 Secretion From Enteroendocrine Cells” (Frontiers in Pharmacology, 2021)

Tests used:
[1] = tested on: GPBAR1 mRNA, NCI-H716 cells; experiment: GPBAR1 mRNA expression in differentiated NCI-H716 cells; assay type: cell-based, human; conditions: 10 µM, 2 h
Experimental: FIGURE 8 Effects of 7-alkylated derivatives of CDCA and 7-ELCA on the membrane receptor GPBAR1. […]. (B) CRE-luc activation depends on the presence of GPBAR1. (C) Effects of LCA and 7-ELCA (both at 10 µM) on intracellular generation of cAMP in differentiated NCI-H716 cells after 30 min treatment. The increase in cAMP level (ΔcAMP) is presented as the difference between cAMP concertation in the treated sample after subtraction of the cAMP in the nontreated control sample. (D) Concentration-response curves for activation of GPBAR1 by LCA and 7-ELCA. EC50 values were calculated using nonlinear fitting of concentration-response curves. […] (G) 7-ELCA (10 µM) increases GLP-1 secretion in siRNA control but not in siRNA Gpbar1 transfected GLUTag cells after 1 h treatment. GLP-1 was normalized to protein concentration and GPBAR1 mRNA expression to GAPDH mRNA. Data are presented as a fold to control nontreated (NT) samples. Forskolin (FSK, 10 µM) was used as a GPBAR1-independent activator of cAMP production.

[2] = molecular target: glucocorticoid receptor (GR) (Homo sapiens, UniProt P04150); experiment: Nuclear receptor specificity luciferase reporter assay in HepG2 cells
Experimental: (§1) For transient transfection, HepG2 cells were seeded at the density of 40,000 cells/cm^2. […] The next day, cells were challenged with tested ligands in indicated concentrations for 5 h. […] All the other transient transfection reporter gene assays were performed with Lipofectamine® 3000 (ThermoFisher Scientific). Briefly, cells were transfected with 150 ng/well luciferase reporter gene constructs (p(DR3)3-luc, SHP-luc, p3A4-luc, pTAT-(GRE)2-TK-luc, p2B6-luc, pGL4.35[luc2P⁄9XGAL4UAS⁄Hygro]), FXRE-luc together with 100 ng/well of the corresponding full-length fragment nuclear receptor expression vectors (pSG5-hVDR, pSG5-hFXR, pSG5-hRXRα, pSG5-hPXR, CAR3 variant) or the ligand binding domains of human, pCMX-GAL4-hFXR, pCMX-GA4L-LXRα, pCMX-GA4L-LXRα, pCMX-GA4L-TRα, pCMX-GA4L-PPARα, pCMX-GAL4-PPARγ, pCMX-GAL4-PPARδ) and 30 ng/well of pRL-TK Renilla luciferase vector 24 h prior to the treatment. […] The firefly luciferase activity was measured using the Dual Luciferase® Reporter Assay System (Promega) and normalized to Renilla luciferase activity. Experiments in an agonistic mode were performed with OCA, CDCA or tested compounds (all compounds at 10 μM). […] EC50 and IC50 were calculated using GraphPad PRISM ver. […]
(§2) Data were normalized to Renilla luciferase activity and are expressed as fold activation relative to control (nontreated, NT) cells. […]

LXRβ = LXRβ (Homo sapiens, UniProt P55055); experiment: as above
Experimental: as §1, §2

[3] = molecular target: constitutive androstane receptor (CAR) (Homo sapiens, UniProt Q14994, DEL233-236); experiment: as above
Experimental: as §1, §2

PPARγ = PPARγ (Homo sapiens, UniProt P37231); experiment: as above
Experimental: as §1, §2

PPARβ/δ = PPARβ/δ (Homo sapiens, UniProt Q03181); experiment: as above
Experimental: as §1, §2

GLUTag cells = experiment: MTS viability assay; assay type: cell-based, murine; conditions: Mus musculus, 24 h, read-out: IC50, cell viability
Experimental: In addition, we examined the potential effect of 7-ethylidene-lithocholic acid (7-ELCA) on viability in murine colonic GLUTag cells. IC50 for 7-ELCA in the cell line remains above 200 µM.
Figure S1. Cell viability in GluTag cells was determined using the Cell Titer 96 Aqueous One Solution Cell Proliferation Assay (Promega) after treatment with 7-ethylidene-lithocholic acid (7-ELCA) for 24 h. Vehicle (0.1% DMSO) and background (10% SDS; v/v, toxic control) controls of cell viability were set to be 100% and 0%, respectively. IC50 is greater than 200 µM.

LXRα = LXRα (Homo sapiens, UniProt Q13133); experiment: Nuclear receptor specificity luciferase reporter assay in HepG2 cells
Experimental: as §1, §2

vitamin D receptor (VDR) = vitamin D receptor (VDR) (Homo sapiens, UniProt P11473); experiment: as above
vitamin D receptor (VDR), sequence (P11473 whole entry): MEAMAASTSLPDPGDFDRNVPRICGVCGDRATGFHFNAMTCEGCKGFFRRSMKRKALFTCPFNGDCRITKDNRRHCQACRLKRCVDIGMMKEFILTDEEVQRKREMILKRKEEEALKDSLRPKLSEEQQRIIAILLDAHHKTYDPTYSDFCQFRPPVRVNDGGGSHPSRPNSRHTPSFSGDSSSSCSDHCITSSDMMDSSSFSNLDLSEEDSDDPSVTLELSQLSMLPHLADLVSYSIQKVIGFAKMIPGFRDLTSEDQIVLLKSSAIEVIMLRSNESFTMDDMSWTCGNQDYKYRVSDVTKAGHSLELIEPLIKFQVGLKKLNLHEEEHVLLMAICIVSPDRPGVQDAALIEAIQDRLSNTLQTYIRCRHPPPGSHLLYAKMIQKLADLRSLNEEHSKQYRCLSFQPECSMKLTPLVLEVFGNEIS
Experimental: as §1, §2

constitutive androstane receptor (CAR), sequence (Q14994 with tags, fused parts or gaps isoform Q14994-8 DEL233-236): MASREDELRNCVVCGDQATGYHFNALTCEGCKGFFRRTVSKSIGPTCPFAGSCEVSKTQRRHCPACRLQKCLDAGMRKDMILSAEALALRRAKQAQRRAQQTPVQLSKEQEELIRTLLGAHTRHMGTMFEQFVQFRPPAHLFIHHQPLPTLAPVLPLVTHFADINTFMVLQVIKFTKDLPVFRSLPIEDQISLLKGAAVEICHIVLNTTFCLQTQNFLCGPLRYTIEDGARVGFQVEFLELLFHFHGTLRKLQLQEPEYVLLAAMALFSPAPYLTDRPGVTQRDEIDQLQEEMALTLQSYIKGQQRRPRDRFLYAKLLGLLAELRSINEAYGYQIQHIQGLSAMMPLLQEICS
constitutive androstane receptor (CAR), sequence (P19793 whole entry partner): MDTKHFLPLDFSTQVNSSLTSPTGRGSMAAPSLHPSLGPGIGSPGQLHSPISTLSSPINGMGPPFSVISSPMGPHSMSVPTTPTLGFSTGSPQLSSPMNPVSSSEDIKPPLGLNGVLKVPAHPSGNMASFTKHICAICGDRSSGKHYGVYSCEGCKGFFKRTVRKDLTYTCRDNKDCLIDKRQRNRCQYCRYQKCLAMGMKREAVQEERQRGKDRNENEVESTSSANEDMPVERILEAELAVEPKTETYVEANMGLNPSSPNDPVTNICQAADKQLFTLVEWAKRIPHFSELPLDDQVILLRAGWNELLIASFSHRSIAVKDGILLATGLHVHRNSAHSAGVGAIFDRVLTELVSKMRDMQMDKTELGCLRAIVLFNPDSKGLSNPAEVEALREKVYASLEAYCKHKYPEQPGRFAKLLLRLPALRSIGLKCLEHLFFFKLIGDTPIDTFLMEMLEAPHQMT
PPARβ/δ, sequence (Q03181 211-439 limits assumed): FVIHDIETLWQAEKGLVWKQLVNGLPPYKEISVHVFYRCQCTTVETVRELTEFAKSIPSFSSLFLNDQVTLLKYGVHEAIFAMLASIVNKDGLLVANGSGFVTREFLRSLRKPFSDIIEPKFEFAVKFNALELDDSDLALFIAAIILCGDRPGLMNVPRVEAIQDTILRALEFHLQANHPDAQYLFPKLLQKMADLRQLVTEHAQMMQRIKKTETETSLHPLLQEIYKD
LXRβ, sequence (P55055 222-460 limits assumed): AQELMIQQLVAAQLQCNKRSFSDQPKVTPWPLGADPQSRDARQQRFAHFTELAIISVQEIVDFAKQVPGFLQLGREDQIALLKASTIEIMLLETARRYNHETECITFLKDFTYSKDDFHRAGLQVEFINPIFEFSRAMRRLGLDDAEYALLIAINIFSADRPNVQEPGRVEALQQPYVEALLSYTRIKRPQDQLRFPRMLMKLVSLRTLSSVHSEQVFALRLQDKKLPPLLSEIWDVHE
PPARγ, sequence (P37231 238-503 limits assumed): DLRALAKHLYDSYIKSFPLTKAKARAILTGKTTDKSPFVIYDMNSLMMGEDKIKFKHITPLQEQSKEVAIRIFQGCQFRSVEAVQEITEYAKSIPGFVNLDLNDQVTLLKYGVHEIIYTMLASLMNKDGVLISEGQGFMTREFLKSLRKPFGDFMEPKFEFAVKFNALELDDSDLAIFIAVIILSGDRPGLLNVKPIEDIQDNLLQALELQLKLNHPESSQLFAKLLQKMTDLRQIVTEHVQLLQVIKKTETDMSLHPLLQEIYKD
glucocorticoid receptor (GR), sequence (P04150 whole entry): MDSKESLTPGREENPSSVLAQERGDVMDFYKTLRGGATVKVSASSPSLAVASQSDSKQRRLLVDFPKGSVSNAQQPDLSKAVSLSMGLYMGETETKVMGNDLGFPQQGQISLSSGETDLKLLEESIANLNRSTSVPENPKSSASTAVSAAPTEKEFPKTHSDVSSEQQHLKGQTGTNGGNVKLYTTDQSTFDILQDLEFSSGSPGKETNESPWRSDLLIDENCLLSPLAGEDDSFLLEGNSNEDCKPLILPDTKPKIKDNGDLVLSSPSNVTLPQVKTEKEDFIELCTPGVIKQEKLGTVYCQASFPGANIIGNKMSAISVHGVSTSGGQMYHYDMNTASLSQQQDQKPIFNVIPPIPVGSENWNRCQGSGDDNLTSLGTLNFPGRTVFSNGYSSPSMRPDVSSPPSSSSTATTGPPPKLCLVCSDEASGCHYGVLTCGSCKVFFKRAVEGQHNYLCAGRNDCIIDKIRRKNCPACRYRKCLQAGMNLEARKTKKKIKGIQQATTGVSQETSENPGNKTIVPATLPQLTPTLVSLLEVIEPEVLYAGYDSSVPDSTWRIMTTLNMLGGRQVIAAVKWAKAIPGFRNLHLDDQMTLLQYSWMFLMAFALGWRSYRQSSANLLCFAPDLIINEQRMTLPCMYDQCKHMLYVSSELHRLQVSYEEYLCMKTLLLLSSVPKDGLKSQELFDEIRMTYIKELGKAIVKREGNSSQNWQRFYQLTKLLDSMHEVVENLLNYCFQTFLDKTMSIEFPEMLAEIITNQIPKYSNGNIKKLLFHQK
LXRα, sequence (Q13133 209-447 limits assumed): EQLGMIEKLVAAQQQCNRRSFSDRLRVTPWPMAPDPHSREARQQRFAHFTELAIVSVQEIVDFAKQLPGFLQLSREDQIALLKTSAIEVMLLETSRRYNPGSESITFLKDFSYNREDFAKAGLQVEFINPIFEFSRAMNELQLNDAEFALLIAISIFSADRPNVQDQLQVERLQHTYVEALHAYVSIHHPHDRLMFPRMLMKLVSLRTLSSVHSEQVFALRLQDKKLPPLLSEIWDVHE

## C/C=C1\C[C@@H]2C[C@H](O)CC[C@]2(C)[C@H]2CC[C@]3(C)[C@@H]([C@H](C)CCC(=O)O)CC[C@H]3[C@H]12 [2a, (E)-3α-Hydroxy-7-ethylidene-5β-cholan-24-oic acid]
[1]
  GPBAR1 mRNA expression: increase GPBAR1 mRNA expression
[2]; 10 µM, with dexamethasone 50 nM
  antagonism of GR activation by model ligand: did not antagonize
[2]; agonistic assay, 24 h
  activation of GR: did not activate
LXRβ; 10 µM, with GW3965 1 µM
  antagonism of LXRβ activation by model ligand: did not antagonize
LXRβ; agonistic assay, 24 h
  activation of LXRβ: did not activate
[3]; 10 µM, with CITCO 1 µM
  antagonism of CAR activation by model ligand: did not antagonize
[3]; agonistic assay, 24 h
  activation of CAR: did not activate
PPARγ; 10 µM, with rosiglitazone 1 µM
  antagonism of PPARγ activation by model ligand: did not antagonize
PPARγ; agonistic assay, 24 h
  activation of PPARγ: did not activate
PPARβ/δ; 10 µM, with GW501516 1 µM
  antagonism of PPARβ/δ activation by model ligand: did not antagonize
PPARβ/δ; agonistic assay, 24 h
  activation of PPARβ/δ: did not activate
GLUTag cells
  IC50: > 200 µM
LXRα; 10 µM, with GW3965 1 µM
  antagonism of LXRα activation by model ligand: did not antagonize
LXRα; agonistic assay, 24 h
  activation of LXRα: did not activate
Vitamin D receptor (VDR); 10 µM, with 1α,25(OH)2vitaminD3 10 nM
  antagonism of VDR activation by model ligand: did not antagonize
Vitamin D receptor (VDR); agonistic assay, 24 h
  activation of VDR: did not activate
